Test results reported in patent publication US20230181703A1, “COMPOSITION COMPRISING PEPSTATIN AND ALGINIC ACID OR A SALT THEREOF, AND USE THEREOF” (DRUGS MINERALS AND GENERICS ITALIA S.R.L. IN FORMA …, priority 2020, published 2023).
≈ marks a conversion by molar mass, not a printed value. Where a SMILES comes first, the peptide text is derived from it. [ ]: non-standard residue; d: D form. The star is where a group is joined. Sta = CC(C)C[C@H](N)[C@@H](O)CC(=O)O; Isovaleryl = CC(C)CC(=O)*

Tests used:
[1] = biological target: T1, pepsin (Sus scrofa, UniProt P00791); test: Enzymatic activity of pepsin (adapted Anson method, denatured haemoglobin substrate, absorbance at 280 nm); type: biochemical; conditions: for ΔAX at 280 nm: inhibitor 0.01% (suspension in H2O)
T1 construct: purchased BDH
T1 sequence (P00791 60-385): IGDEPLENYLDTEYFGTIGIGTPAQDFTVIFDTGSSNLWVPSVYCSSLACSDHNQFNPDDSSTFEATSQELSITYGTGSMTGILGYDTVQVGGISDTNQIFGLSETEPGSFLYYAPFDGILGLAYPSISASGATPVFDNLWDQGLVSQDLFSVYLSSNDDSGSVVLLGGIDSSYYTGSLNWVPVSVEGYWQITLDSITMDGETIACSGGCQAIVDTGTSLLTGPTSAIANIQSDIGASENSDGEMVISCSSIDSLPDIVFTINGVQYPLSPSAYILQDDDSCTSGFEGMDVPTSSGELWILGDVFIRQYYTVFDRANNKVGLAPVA
Description: The method used to measure the enzymatic activity of pepsin alone or together with the inhibitory substance (pepstatin), consists of an adaptation of the Anson method [Anson et al, J. Gen. Physiol. 1931, 16, 59] which provides for the use of denatured haemoglobin as substrate. The enzymatic activity was determined after precipitation with trichloroacetic acid of the non-hydrolysed substrate. The activity of the enzyme was determined spectrophotometrically from the concentration of soluble peptides released by the proteolytic action.
T=37° C., pH=1,5, Anm, optical path 1 cm, reaction time 10 minutes. At pH=1.5, in which the experiments were conducted, there is a maximum activity of pepsin.
Haemoglobin 2%, pepsin 0,02%, inhibitor 0.01%.
Substrate: 250 mg of human haemoglobin are weighed in a 10 mL flask, it is brought up to volume with distilled water and left under stirring for 10 minutes in a water bath at 37° C. to obtain a solution 2.5%. The solution is passed through a filter paper to eliminate insoluble residues. 8 mL of the filtrate are taken and the volume is brought up to 10 mL with acidic water so as to have a final pH finale of 1.5 and a solution 2% (w/V).
Enzyme: 5 mg of pepsin are weighed in a 5 mL flask and it is brought up to volume with acidic water (pH=1.5).
Enzyme together with inhibitory substance: 5 mg of pepsin are weighed in a 5 mL flask. 0.5 mg/mL of a solution or suspension at pH=1.5 of the inhibitory substance are prepared separately (checking the pH with a pH meter and correcting it, if necessary, with hydrochloric acid 12 M in an amount such not to change the total volume). […]
0.25 mL of substrate (haemoglobin) are pipetted in a suitable vial and almost entirely submerged in a water bath thermostated at 37° C. It is left under magnetic stirring for 10 minutes at 37° C. 50 microlitres of the enzyme solution (pepsin) or of the enzyme together with the inhibitory substance (pepsin+pepstatin A) are then added and the system is kept under incubation for exactly 10 minutes. 0.5 mL of the trichloroacetic acid solution 5% are added after this period of time and then left for another 5 minutes. Exactly 3 mL of distilled water at pH=1.5 are added into the vial using a graduated pipette; the solution is stirred and filtered using a 0.45 μm syringe filter. An absorption spectrum (with absorbance (A) always below 1) with wavelengths comprised between 300 nm and 250 nm is recorded using a spectrophotometer using the absorbance value at 280 nm as reference.
Blank: 0.25 mL of substrate (haemoglobin) are pipetted in a suitable vial and almost entirely submerged in a water bath thermostated at 37° C. It is left under magnetic stirring for 10 minutes. 50 microlitres 0.5 mg/mL of the inhibitory substance solution (without enzyme) are then added and the system is kept under incubation for exactly 10 minutes. 0.5 mL of the trichloroacetic acid solution 5% are added after this period of time and then left for another 5 minutes.
50 microlitres of solution 1 mg/mL of enzyme without inhibitory substance are the introduced. Exactly 3 mL of distilled water at pH=1.5 are added into the vial using a graduated pipette, then the solution is stirred and filtered using a 0.45 μm syringe filter. An absorbance with wavelengths comprised between 300 nm and 250 nm is recorded using a spectrophotometer using the absorbance value at 280 nm as reference.
Each experiment was repeated at least twice. The final absorbance value (A) at 280 nm was the mean of the absorbance values obtained (with an uncertainty on the values always much lower than 10%). A ΔA, with ΔAx=A280sample substanceX−A280blank substance X and ΔAo=A280sample free pepsin−A280blank free pepsin in the event of absence of the inhibitory substance are associated with the pepsin-inhibiting substance. […]

[2] = physchem; conditions: Solubility in ethanol (EtOH)

Structure (SMILES): CC(C)CC(=O)N[C@H](C(=O)N[C@H](C(=O)N[C@@H](CC(C)C)[C@@H](O)CC(=O)N[C@@H](C)C(=O)N[C@@H](CC(C)C)[C@@H](O)CC(=O)O)C(C)C)C(C)C [PEPSTATIN, Isovaleryl-L-val-L-val-statyl-L-alanyl-statin] (Isovaleryl-VV[Sta]A[Sta]-OH)
- ΔAX at 280 nm ([1]; pepsin 0.02%, haemoglobin 2%, pH 1.5, 37° C., 10 minutes): 0
- ΔAX at 280 nm ([1]; pepsin 0.02%, haemoglobin 2%, pH 1.5, 37° C., 10 minutes, listed as Pepstatin): 0
- ΔAX at 280 nm ([1]; pepsin 0.02%, haemoglobin 2%, pH 1.5, 37° C., 10 minutes, listed as pepstatin): 0.004
- Residual activity with respect to the maximum activity measured ([1]; inhibitor 0.01%, pepsin 0.02%, haemoglobin 2%, pH 1.5, 37° C., 10 minutes): 0%
- Activity of pepsin in the presence of pepstatin 1 μM ([1]; pepstatin 1 μM diluted in H2O after dissolution in EtOH 1 mg/mL, added to haemoglobin 2% before pepsin, pH 1.5, 10 min (FIG. 3)): total abatement in the activity
- Binding between the enzyme and the inhibitor (kinetics study) ([1]; pepstatin 1 μM in haemoglobin 2%, time scale of the experiment t=10 minutes): immediate binding
- Concentrations at which pepsin is inhibited / totally deactivated ([1]; statement in Conclusions, no picomolar test described): picomolar concentrations
- solubility [2]: 1000 µg/mL (≈ 1460 µM)
